ChEMBL document CHEMBL5316381, “Discovery of [1,2,3]Triazolo[4,5-c]quinoline Derivatives as a New Class of Ataxia-Telangiectasia Mutated Kinase Inhibitors” (ACS Med Chem Lett, 2023)
The source made the active and inactive calls. The rule behind the calls is not given here.

Assays:
[1] = system: HCT-116; experiment: Induction of apoptosis in human HCT-116 cells assessed as early apoptotic cells at 100 nM measured after 72 hrs by Annexin V-FITC staining based flow cytometric analysis (reference value: 4.06%); format: functional
[2] = molecular target: Serine/threonine-protein kinase Chk2 (Homo sapiens) (UniProt O96017); experiment: Inhibition of CPT-11 induced Chk2 phosphorylation in human SW620 cells by SDS-PAGE based Westernblot analysis; format: cell-based
Serine/threonine-protein kinase Chk2 (Homo sapiens), sequence (O96017 whole entry): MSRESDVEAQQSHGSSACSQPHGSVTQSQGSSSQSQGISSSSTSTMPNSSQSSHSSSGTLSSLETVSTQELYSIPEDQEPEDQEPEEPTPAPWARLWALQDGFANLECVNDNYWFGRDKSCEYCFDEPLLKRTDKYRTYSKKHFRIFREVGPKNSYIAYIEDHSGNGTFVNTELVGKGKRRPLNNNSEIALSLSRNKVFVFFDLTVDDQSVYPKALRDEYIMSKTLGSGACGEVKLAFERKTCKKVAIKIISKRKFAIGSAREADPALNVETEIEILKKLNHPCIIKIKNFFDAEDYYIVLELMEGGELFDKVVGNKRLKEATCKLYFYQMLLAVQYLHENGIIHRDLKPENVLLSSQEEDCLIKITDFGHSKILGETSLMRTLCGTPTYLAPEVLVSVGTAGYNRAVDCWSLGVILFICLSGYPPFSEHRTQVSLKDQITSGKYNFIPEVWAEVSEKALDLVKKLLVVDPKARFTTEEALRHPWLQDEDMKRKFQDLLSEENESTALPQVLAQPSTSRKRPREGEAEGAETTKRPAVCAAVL

[3] = system: SW-620; experiment: Induction of apoptosis in human SW620 cells assessed as viable cells at 10 nM measured after 72 hrs in presence of CPT-11 by Annexin V-FITC staining based flow cytometric analysis (reference value: 87.36%); format: functional; settings: read-out: Activity
[4] = system: SW-620; experiment: Induction of apoptosis in human SW620 cells assessed as early apoptotic cells at 10 nM measured after 72 hrs in presence of CPT-11 by Annexin V-FITC staining based flow cytometric analysis (reference value: 1.06%); format: functional
[5] = system: SW-620; experiment: Induction of apoptosis in human SW620 cells assessed as late apoptotic cells at 100 nM measured after 72 hrs by Annexin V-FITC staining based flow cytometric analysis (reference value: 5.75%); format: functional
[6] = system: HCT-116; experiment: Induction of apoptosis in human HCT-116 cells assessed as late apoptotic cells at 30 nM measured after 72 hrs in presence of CPT-11 by Annexin V-FITC staining based flow cytometric analysis (reference value: 19.80%); format: functional
[7] = system: SW-620; experiment: Radiosensitizing activity against human SW620 cells assessed as reduction in colony formation at 27 nM incubated after 14 days in the presence of 3 Gy irradiation by crystal violet staining based analysis; format: functional, cell-based; settings: time 14.0 day
[8] = molecular target: Serine-protein kinase ATM (Homo sapiens, UniProt Q13315); experiment: Inhibition of ATM phosphorylation in human SW620 cells with IR-induced DNA damage in the presence of 3 Gy irradiation by Western blot analysis; format: cell-based; settings: dose 3-250 nM
Serine-protein kinase ATM, sequence (Q13315 whole entry): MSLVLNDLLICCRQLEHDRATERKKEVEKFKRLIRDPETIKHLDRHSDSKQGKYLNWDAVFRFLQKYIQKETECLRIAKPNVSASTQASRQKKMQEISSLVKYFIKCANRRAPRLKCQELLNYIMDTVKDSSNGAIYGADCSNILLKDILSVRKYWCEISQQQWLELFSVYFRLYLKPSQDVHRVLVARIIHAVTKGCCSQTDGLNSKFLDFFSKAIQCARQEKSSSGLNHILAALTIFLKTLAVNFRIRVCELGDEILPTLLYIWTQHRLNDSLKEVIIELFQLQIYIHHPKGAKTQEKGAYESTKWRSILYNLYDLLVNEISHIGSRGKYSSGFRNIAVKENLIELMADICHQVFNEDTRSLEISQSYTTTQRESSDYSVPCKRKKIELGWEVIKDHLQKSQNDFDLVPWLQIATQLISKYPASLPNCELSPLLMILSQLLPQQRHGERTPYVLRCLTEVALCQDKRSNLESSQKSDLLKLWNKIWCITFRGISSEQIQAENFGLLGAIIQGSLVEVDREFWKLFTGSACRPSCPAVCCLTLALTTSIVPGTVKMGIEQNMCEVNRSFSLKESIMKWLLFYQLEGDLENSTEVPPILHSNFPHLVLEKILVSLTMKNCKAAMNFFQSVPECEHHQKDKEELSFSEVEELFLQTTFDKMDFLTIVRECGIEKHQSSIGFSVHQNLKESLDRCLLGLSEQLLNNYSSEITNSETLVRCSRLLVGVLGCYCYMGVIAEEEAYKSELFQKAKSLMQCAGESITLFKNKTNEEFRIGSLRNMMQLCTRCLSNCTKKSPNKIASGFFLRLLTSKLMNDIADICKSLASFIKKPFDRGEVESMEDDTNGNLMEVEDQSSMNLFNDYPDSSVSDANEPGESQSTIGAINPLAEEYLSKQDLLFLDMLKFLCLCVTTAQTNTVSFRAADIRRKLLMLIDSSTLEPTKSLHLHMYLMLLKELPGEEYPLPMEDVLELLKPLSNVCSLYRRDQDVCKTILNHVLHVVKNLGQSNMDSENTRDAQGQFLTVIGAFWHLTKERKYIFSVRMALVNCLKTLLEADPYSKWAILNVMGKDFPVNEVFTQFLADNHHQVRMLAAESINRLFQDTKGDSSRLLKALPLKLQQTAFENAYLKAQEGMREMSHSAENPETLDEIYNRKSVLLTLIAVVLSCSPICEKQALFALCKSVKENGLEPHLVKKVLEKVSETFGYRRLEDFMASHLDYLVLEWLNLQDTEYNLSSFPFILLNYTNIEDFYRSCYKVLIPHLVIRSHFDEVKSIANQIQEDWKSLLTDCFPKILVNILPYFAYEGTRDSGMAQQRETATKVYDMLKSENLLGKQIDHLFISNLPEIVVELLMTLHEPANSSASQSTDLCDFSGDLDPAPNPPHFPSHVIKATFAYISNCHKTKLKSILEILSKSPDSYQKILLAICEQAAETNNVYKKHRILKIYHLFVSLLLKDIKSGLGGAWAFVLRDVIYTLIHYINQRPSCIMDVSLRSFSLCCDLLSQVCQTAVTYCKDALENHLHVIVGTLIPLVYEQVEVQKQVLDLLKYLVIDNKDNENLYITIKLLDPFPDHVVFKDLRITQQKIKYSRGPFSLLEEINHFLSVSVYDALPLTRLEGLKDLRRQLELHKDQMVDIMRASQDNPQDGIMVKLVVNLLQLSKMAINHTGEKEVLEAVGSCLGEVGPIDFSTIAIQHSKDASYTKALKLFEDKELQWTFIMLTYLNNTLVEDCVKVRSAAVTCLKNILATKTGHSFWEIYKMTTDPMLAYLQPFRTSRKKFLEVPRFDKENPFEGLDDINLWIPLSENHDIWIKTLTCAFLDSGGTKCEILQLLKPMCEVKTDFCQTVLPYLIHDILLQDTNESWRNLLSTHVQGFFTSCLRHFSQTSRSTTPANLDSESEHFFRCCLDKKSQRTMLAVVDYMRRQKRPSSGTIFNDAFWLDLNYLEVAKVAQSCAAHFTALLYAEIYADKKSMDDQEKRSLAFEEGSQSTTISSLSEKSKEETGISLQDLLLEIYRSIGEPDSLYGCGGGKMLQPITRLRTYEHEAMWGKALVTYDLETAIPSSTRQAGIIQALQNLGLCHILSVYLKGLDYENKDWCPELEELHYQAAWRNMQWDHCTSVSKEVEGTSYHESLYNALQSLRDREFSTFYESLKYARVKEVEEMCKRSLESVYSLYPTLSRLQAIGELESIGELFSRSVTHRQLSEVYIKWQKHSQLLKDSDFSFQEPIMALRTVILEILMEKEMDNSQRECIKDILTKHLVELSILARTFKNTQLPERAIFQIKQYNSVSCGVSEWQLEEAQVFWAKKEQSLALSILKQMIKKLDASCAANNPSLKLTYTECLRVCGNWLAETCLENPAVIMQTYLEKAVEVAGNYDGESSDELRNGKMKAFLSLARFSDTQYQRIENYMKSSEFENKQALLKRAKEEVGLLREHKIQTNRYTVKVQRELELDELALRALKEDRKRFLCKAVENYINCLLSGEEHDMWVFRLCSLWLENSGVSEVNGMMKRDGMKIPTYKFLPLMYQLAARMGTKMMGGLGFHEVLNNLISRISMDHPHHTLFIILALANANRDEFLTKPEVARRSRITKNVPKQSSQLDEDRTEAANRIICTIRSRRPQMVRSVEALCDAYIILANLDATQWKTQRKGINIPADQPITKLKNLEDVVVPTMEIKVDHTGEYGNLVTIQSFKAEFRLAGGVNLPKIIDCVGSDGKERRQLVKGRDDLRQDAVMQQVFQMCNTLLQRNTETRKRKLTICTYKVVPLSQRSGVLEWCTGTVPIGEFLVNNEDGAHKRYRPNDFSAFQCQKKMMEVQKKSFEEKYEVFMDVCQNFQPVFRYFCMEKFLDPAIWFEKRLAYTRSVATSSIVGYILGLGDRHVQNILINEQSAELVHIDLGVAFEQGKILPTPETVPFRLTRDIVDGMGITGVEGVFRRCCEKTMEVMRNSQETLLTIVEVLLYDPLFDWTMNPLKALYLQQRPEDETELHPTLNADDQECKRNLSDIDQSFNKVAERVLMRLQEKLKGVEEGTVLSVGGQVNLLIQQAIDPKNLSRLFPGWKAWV

[9] = system: SW-620; experiment: Cell cycle arrest in human SW620 cells assessed as accumulation of cells at G2/M phase incubated for 24 hrs in presence of CPT-11 by PI staining based flow cytometric analysis; format: functional; settings: dose 10-100 nM
[10] = system: HCT-116; experiment: Induction of apoptosis in human HCT-116 cells assessed as late apoptotic cells at 10 nM measured after 72 hrs in presence of CPT-11 by Annexin V-FITC staining based flow cytometric analysis (reference value: 19.80%); format: functional
[11] = system: HCT-116; experiment: Induction of apoptosis in human HCT-116 cells assessed as viable cells at 10 nM measured after 72 hrs in presence of CPT-11 by Annexin V-FITC staining based flow cytometric analysis (reference value: 73.74%); format: functional; settings: read-out: Activity
[12] = system: SW-620; experiment: Induction of apoptosis in human SW620 cells assessed as viable cells at 100 nM measured after 72 hrs by Annexin V-FITC staining based flow cytometric analysis (reference value: 87.36%); format: functional; settings: read-out: Activity
[13] = Toxicity in BALB/c mouse xenografted with human SW620 cells assessed as liver damage at 5 mg/kg, ip administered once daily and measured after 23 days by H&E staining based microscopic analysis; format: organism-based, SW-620; settings: in vivo, 552 h, time 23 day
[14] = molecular target: Serine/threonine-protein kinase Chk2 (Homo sapiens) (UniProt O96017); experiment: Inhibition of Chk2 phosphorylation in human SW620 cells with IR-induced DNA damage in the presence of 3 Gy irradiation by Western blot analysis; format: cell-based; settings: dose 3-250 nM
[15] = system: SW-620; experiment: Induction of apoptosis in human SW620 cells assessed as necrotic cells at 100 nM measured after 72 hrs in presence of CPT-11 by Annexin V-FITC staining based flow cytometric analysis (reference value: 5.83%); format: functional

Which results are given for `C[C@H](c1ccccc1)n1nnc2cnc3ccc(-c4ccc(OCCCN(C)C)nc4)cc3c21`?
Activity [1]: 1.21%; inhibition [2]: Dose-Dependent Effect; viability at 0.01 µM [3]: 64.1%; Activity [4]: 2.76%; Activity [5]: 11.57%; Activity [6]: 63.63%; Activity [7]: Active; inhibition [8]: Dose-Dependent Effect; Activity [9]: Dose-Dependent Effect; Activity [10]: 34.21%; viability at 0.01 µM [11]: 55.8%; viability at 0.1 µM [12]: 80.2%; Activity [13]: Non-Toxic; inhibition [14]: Dose-Dependent Effect; Activity [15]: 1.63%
